Marks after values point to notes of the source that are not given here.
Assays:
[1] = Fatty acids in cecum of piglets (Example 4); assay type: in vivo, PIC genetics
Protocol: (§1) Composition of Example 4 was tested in piglets to evaluate their performance ratio in comparison with growth promoter antibiotic (GPA) and with sodium butyrate. All were added to the rations of the respective treatments as growth promoting additives.
(§2) Sixty-three piglets were weaned at 22 days of age, with a start average body weight of 5.48 kg, both sexes, PIC genetics. The animals were separated by sex and distributed into 3 treatments, with 7 replicates of 3 animals each, during the whole period (22 to 64 days of age). Diet was formulated without Zinc Oxide or any other antimicrobial.
(§3) T1: Basal Diet+GPA (colistin 8%—40 ppm)
(§4) T2: Basal Diet+Sodium Butyrate 30% (1 kg/t)
(§5) T3: Basal Diet+Composition of the Invention of Example 4 (2 kg/t)

[2] = Piglet performance with growth promoting additives (Example 4); assay type: in vivo, PIC genetics; settings: piglets 22 to 64 days of age
Protocol: as §1, §2, §3, §4, §5

[3] = Diarrhea index in piglets (Example 4); assay type: in vivo, PIC genetics
Protocol: as §1, §2, §3, §4, §5

[4] = tested on: sulfite-reducing Clostridium; experiment: Sulfite-reducing Clostridium CFU count in cecum fecal material of challenged chickens (Examples 8, 9, 10); assay type: in vivo; settings: cecum fecal material at 28 days; colony forming units
Text: Compositions of examples 8, 9 and 10 were used as growth promoting additives for growing chicken feeds, i.e., during the first 28 days of life, to evaluate the control of Salmonella heidelbergii. On the fourth day of life, 20% of the birds were inoculated with Salmonella heidelbergii. At the end of the 28 days, fecal material was collected from the cecum of the birds and the counting of colony forming units (CFUs) of Salmonella and sulfite-reducing Clostridium.
The treatments were as follows:
T1: Basal Diet+SH Challenge—WITHOUT GPA (growth promoting antibiotic)
T2: Basic Diet+SH+APC Challenge (Enramicima 8 ppm)
T3: Basal Diet+SH Challenge+Sodium Butyrate (1.5 kg/t of feed)
T4: Basal Diet+Composition of the Invention of Example 8—3 kg/t
T5: Basal Diet+Composition of the Invention of Example 9—3 kg/t
T6: Basal Diet+Composition of the Invention of Example 10—3 kg/t
T7: Basal Diet+Composition of the Invention of Example 9—3 kg/t+Probiotic

[5] = Growth promoter additives in commercial broiler chicken diets (Examples 2 and 3 vs Zinc Bacitracin); assay type: in vivo, commercial broiler chickens
Protocol: (§6) Formulations of examples 2 and 3 were administered to commercial broiler chickens, with an inclusion of 2 kg per ton of feed. The results are shown in Tables 12 (Diets with Zinc Bacitracin Antibiotic, As Growth Promoter Additives), 13 (Diets with the Composition of Example 2, as Growth Promoter Additives) and 14 (Diets with the Composition of Example 3, As Growth Promoter Additive) below.
(§7) Note: (*)—Salmonella Control Efficiency Index, measured by conducting a ‘propé’ [shoe covers] drag swab tests. Antibiotic=100 (**)—Zinc Bacitracin

Salmonella = Salmonella Control Efficiency Index by 'propé' drag swab tests, commercial broiler chickens; assay type: in vivo; settings: Antibiotic=100
Protocol: as §6, §7

Compound: CCCC(=O)[O-].[Na+] [Sodium Butyrate]
- Fatty acids in Cecum: Acetic [1]: 0.38
- Fatty acids in Cecum: Butyric [1]: 0.18
- Fatty acids in Cecum: Propionic [1]: 0.32^a
- Fatty acids in Cecum: Total [1]: 0.87
- CA = feed conversion [2]: 2.07
- Diarrhea index ([3]; Grade I): 22^b
- Diarrhea index ([3]; Grade II): 33^ab
- Diarrhea index ([3]; Grade III): 53^b
- Sulfite-reducing Clostridium [4]: 4959

Compound: Zinc Bacitracin
- Feed Conversion ([5]; Average of Productions 1-4): 1.69
- Final Average Body Weight ([5]; Average of Productions 1-4): 3.11 kgBW/bird
- Food Intake ([5]; Average of Productions 1-4): 5.159 kg/Bird
- Feed Conversion ([5]; Production 1): 1.72
- Final Average Body Weight ([5]; Production 1): 3.14 kgBW/bird
- Food Intake ([5]; Production 1): 5.329 kg/Bird
- Feed Conversion ([5]; Production 2): 1.71
- Final Average Body Weight ([5]; Production 2): 3.07 kgBW/bird
- Food Intake ([5]; Production 2): 5.167 kg/Bird
- Feed Conversion ([5]; Production 3): 1.60
- Final Average Body Weight ([5]; Production 3): 3.20 kgBW/bird
- Food Intake ([5]; Production 3): 5.034 kg/Bird
- Feed Conversion ([5]; Production 4): 1.72
- Final Average Body Weight ([5]; Production 4): 3.01 kgBW/bird
- Food Intake ([5]; Production 4): 5.105 kg/Bird
- Control of Salmonella (Salmonella Control Efficiency Index) (Salmonella; Average of Productions 1-4): 100
- Control of Salmonella (Salmonella Control Efficiency Index) (Salmonella; Production 1): 100
- Control of Salmonella (Salmonella Control Efficiency Index) (Salmonella; Production 2): 100
- Control of Salmonella (Salmonella Control Efficiency Index) (Salmonella; Production 3): 100
- Control of Salmonella (Salmonella Control Efficiency Index) (Salmonella; Production 4): 100
